{
  "source": "paper PMC10747733",
  "about": "“N-Substituted 2-(Benzenosulfonyl)-1-Carbotioamide Derivatives Exert Antimicrobial and Cytotoxic Effects via Aldehyde Dehydrogenase Pathway: Synthesis, In Silico and In Vitro Studies” (Pharmaceuticals, 2023)",
  "type_in_all_cases": "cell-based",
  "key": {"Gram-positive bacteria": {"system": "Gram-positive bacteria", "assay": "Broth microdilution, summary over reference Gram-positive bacteria", "text": "(§1) Reference strains of microorganisms that came from American Type Culture Collection (ATCC) (Manassas, VA, USA) were used for this study. The representative Gram-positive bacteria were as follows: Staphylococcus aureus ATCC 25923, Staphylococcus aureus ATCC 29213, Staphylococcus aureus ATCC 43300, Staphylococcus epidermidis ATCC 12228, Enterococcus faecalis ATCC 29212, Micrococcus luteus ATCC 10240, Bacillus subtilis ATCC 6633 and Bacillus cereus ATCC 10876. While, those of Gram-negative bacteria were as follows: Bordetella bronchiseptica ATCC 4617, Escherichia coli ATCC 25922, Klebsiella pneumoniae ATCC 13883, Proteus mirabilis ATCC 12453, Salmonella Typhimurium ATCC 14028 and Pseudomonas aeruginosa ATCC 9027. Moreover, the following fungi belonging to yeasts were used: Candida albicans ATCC 10231, Candida albicans ATCC 2091, Candida parapsilosis ATCC 22019, Candida glabrata ATCC 90030 and Candida krusei ATCC 14243.\n(§2) The new compounds WZ1–WZ4 were assayed for both antibacterial and antifungal activity using the broth microdilution method in accordance with the European Committee on Antimicrobial Susceptibility Testing (EUCAST) and Clinical and Laboratory Standards Institute (CLSI) guidelines. The microorganisms were grown at 35 °C for 18–24 h on appropriate media (nutrient agar and Sabouraud for bacteria and fungi, respectively) (BioMaxima S.A., Lublin, Poland). Next, microbial suspensions with an optical density of 0.5 McFarland standard scale (in sterile 0.85% NaCl) were prepared. In turn, the tested compounds were initially diluted at 50 mg/mL in dimethyl sulfoxide (DMSO) and the broth microdilution method was used to assess their minimum inhibitory concentrations (MICs). For these studies, selective broth Mueller-Hinton (MH) (BioMaxima S.A., Lublin, Poland) and RPMI (Roswell Park Memorial Institute) 1640 with MOPS (3-(N-Morpholino)propanesulfonic acid) (Sigma-Aldrich Chemicals, St. Louis, MO, USA) were used for bacteria and fungi, respectively. The antimicrobial effect of compounds WZ1–WZ4 was determined in the concentration range from 2000 to 0.98 µg/mL.\n(§3) Then, the microbial suspensions were introduced into each well of the microplate and incubated for 18–24 h at 35 °C. […] The reference drugs ciprofloxacin or vancomycin (against bacteria) and nystatin (against fungi) (Sigma-Aldrich Chemicals, St. Louis, MO, USA) were also used. Next, the values of the minimum bactericidal concentration (MBC) and minimum fungicidal concentration (MFC) of WZ1–WZ4 were assessed. For this purpose, the cultures from each MIC determination well were transferred to a suitable solid medium and incubated under appropriate conditions. The lowest concentrations of compounds without microbial growth were read as MBC or MFC. The studies were performed in triplicate and representative data were gathered.\n(§4) In turn, the MBC/MIC or MFC/MIC ratios were used to assess bactericidal/fungicidal (MBC/MIC or MFC/MIC ≤ 4) and bacteriostatic/fungistatic (MBC/MIC or MFC/MIC > 4) effect of these compounds [93]."}, "[1]": {"system": "Bacillus cereus ATCC 10876", "assay": "Broth microdilution antimicrobial activity", "text": "as §1, §2, §3, §4"}, "[2]": {"system": "Candida krusei ATCC 14243", "assay": "Broth microdilution antimicrobial activity", "text": "as §1, §2, §3, §4"}, "[3]": {"system": "Staphylococcus aureus ATCC 29213", "assay": "Broth microdilution antimicrobial activity", "details": "Staphylococcus aureus ATCC 29213", "text": "as §1, §2, §3, §4"}, "[4]": {"system": "Salmonella Typhimurium ATCC 14028", "assay": "Broth microdilution antimicrobial activity", "text": "as §1, §2, §3, §4"}, "[5]": {"system": "Candida albicans ATCC 10231", "assay": "Broth microdilution antimicrobial activity", "text": "as §1, §2, §3, §4"}, "[6]": {"system": "Klebsiella pneumoniae ATCC 13883", "assay": "Broth microdilution antimicrobial activity", "text": "as §1, §2, §3, §4"}, "[7]": {"system": "Bordetella bronchiseptica ATCC 4617", "assay": "Broth microdilution antimicrobial activity", "text": "as §1, §2, §3, §4"}, "[8]": {"system": "Enterococcus faecalis ATCC 29212", "assay": "Broth microdilution antimicrobial activity", "details": "Enterococcus faecalis ATCC 29212", "text": "as §1, §2, §3, §4"}, "[9]": {"system": "Staphylococcus aureus ATCC 43300", "assay": "Broth microdilution antimicrobial activity", "details": "Staphylococcus aureus ATCC 43300", "text": "as §1, §2, §3, §4"}, "[10]": {"system": "Candida glabrata ATCC 90030", "assay": "Broth microdilution antimicrobial activity", "text": "as §1, §2, §3, §4"}, "[11]": {"system": "Staphylococcus epidermidis ATCC 12228", "assay": "Broth microdilution antimicrobial activity", "text": "as §1, §2, §3, §4"}, "[12]": {"system": "Micrococcus luteus ATCC 10240", "assay": "Broth microdilution antimicrobial activity", "text": "as §1, §2, §3, §4"}, "[13]": {"system": "Candida albicans ATCC 2091", "assay": "Broth microdilution antimicrobial activity", "text": "as §1, §2, §3, §4"}, "[14]": {"system": "Proteus mirabilis ATCC 12453", "assay": "Broth microdilution antimicrobial activity", "text": "as §1, §2, §3, §4"}, "[15]": {"system": "Pseudomonas aeruginosa ATCC 9027", "assay": "Broth microdilution antimicrobial activity", "text": "as §1, §2, §3, §4"}, "[16]": {"system": "Escherichia coli ATCC 25922", "assay": "Broth microdilution antimicrobial activity", "text": "as §1, §2, §3, §4"}, "[17]": {"system": "Staphylococcus aureus ATCC 25923", "assay": "Broth microdilution antimicrobial activity", "text": "as §1, §2, §3, §4"}},
  "data": [
    {"smiles": "O=S(=O)(NNC(=S)NC1CCCCC1)c1ccccc1", "note": "[WZ1, 2-(Benzenesulfonyl)-N-Cyclohexylhydrazine-1-Carbothioamide]", "values": [
      {"measurement": "MIC", "setting": "Gram-positive bacteria; Enterococcus faecalis, Gram-positive bacteria except E. faecalis", "value": "250 to 500", "unit": "µg/mL"},
      {"measurement": "MIC", "setting": "Gram-positive bacteria; almost all Gram-positive bacteria", "value": "62.5 to 500", "unit": "µg/mL"},
      {"measurement": "share of reference Gram-positive strains with moderate activity", "setting": "Gram-positive bacteria; moderate activity: MIC 126–500 µg/mL, 8 strains", "value": 87.5, "unit": "%"},
      {"measurement": "share of reference Gram-positive strains with no activity", "setting": "Gram-positive bacteria; no activity: MIC > 1000 µg/mL, 8 strains", "value": 12.5, "unit": "%"},
      {"measurement": "MBC/MIC", "setting": "[1]", "value": "> 4"},
      {"measurement": "MBC", "setting": "[1]; ATCC10876", "value": "> 2000", "unit": "µg/mL"},
      {"measurement": "MIC", "setting": "[1]; ATCC10876", "value": 500, "unit": "µg/mL"},
      {"measurement": "MFC/MIC", "setting": "[2]", "value": "> 1"},
      {"measurement": "MFC", "setting": "[2]; Pichia kudriavzevii, ATCC14243, read-out: MFC", "value": "> 2000", "unit": "µg/mL"},
      {"measurement": "MIC", "setting": "[2]; Pichia kudriavzevii, ATCC14243, read-out: MIC", "value": "> 2000", "unit": "µg/mL"},
      {"measurement": "MBC", "setting": "[3]; ATCC29213", "value": "> 2000", "unit": "µg/mL"},
      {"measurement": "MIC", "setting": "[3]; ATCC29213", "value": 500, "unit": "µg/mL"},
      {"measurement": "MBC/MIC", "setting": "[3]", "value": "> 4"},
      {"measurement": "MBC/MIC", "setting": "[4]", "value": "> 1"},
      {"measurement": "MBC", "setting": "[4]; Salmonella enterica", "value": "> 2000", "unit": "µg/mL"},
      {"measurement": "MIC", "setting": "[4]; Salmonella enterica", "value": "> 2000", "unit": "µg/mL"},
      {"measurement": "MFC/MIC", "setting": "[5]", "value": "> 1"},
      {"measurement": "MFC", "setting": "[5]; ATCC10231, read-out: MFC", "value": "> 2000", "unit": "µg/mL"},
      {"measurement": "MIC", "setting": "[5]; ATCC10231, read-out: MIC", "value": "> 2000", "unit": "µg/mL"},
      {"measurement": "MBC/MIC", "setting": "[6]", "value": "> 1"},
      {"measurement": "MBC", "setting": "[6]; ATCC13883", "value": "> 2000", "unit": "µg/mL"},
      {"measurement": "MIC", "setting": "[6]; ATCC13883", "value": "> 2000", "unit": "µg/mL"},
      {"measurement": "MBC/MIC", "setting": "[7]", "value": "> 1"},
      {"measurement": "MBC", "setting": "[7]; ATCC4617", "value": "> 2000", "unit": "µg/mL"},
      {"measurement": "MIC", "setting": "[7]; ATCC4617", "value": "> 2000", "unit": "µg/mL"},
      {"measurement": "MBC", "setting": "[8]; ATCC29212, read-out: MBC", "value": "> 2000", "unit": "µg/mL"},
      {"measurement": "MIC", "setting": "[8]; ATCC29212, read-out: MIC", "value": 2000, "unit": "µg/mL"},
      {"measurement": "MBC/MIC", "setting": "[8]", "value": "> 1"},
      {"measurement": "MBC", "setting": "[9]; ATCC43300", "value": "> 2000", "unit": "µg/mL"},
      {"measurement": "MIC", "setting": "[9]; ATCC43300", "value": 500, "unit": "µg/mL"},
      {"measurement": "MBC/MIC", "setting": "[9]", "value": "> 4"},
      {"measurement": "MFC/MIC", "setting": "[10]", "value": "> 1"},
      {"measurement": "MFC", "setting": "[10]; Nakaseomyces glabratus, ATCC90030, read-out: MFC", "value": "> 2000", "unit": "µg/mL"},
      {"measurement": "MIC", "setting": "[10]; Nakaseomyces glabratus, ATCC90030, read-out: MIC", "value": "> 2000", "unit": "µg/mL"},
      {"measurement": "MBC/MIC", "setting": "[11]", "value": "> 8"},
      {"measurement": "MBC", "setting": "[11]; ATCC12228", "value": "> 2000", "unit": "µg/mL"},
      {"measurement": "MIC", "setting": "[11]; ATCC12228", "value": 250, "unit": "µg/mL"},
      {"measurement": "MBC/MIC", "setting": "[12]", "value": "> 4"},
      {"measurement": "MBC", "setting": "[12]; ATCC10240", "value": "> 2000", "unit": "µg/mL"},
      {"measurement": "MIC", "setting": "[12]; ATCC10240", "value": 500, "unit": "µg/mL"},
      {"measurement": "MFC/MIC", "setting": "[13]", "value": "> 1"},
      {"measurement": "MFC", "setting": "[13]; ATCC2091, read-out: MFC", "value": "> 2000", "unit": "µg/mL"},
      {"measurement": "MIC", "setting": "[13]; ATCC2091, read-out: MIC", "value": "> 2000", "unit": "µg/mL"},
      {"measurement": "MBC/MIC", "setting": "[14]", "value": "> 1"},
      {"measurement": "MBC", "setting": "[14]; ATCC12453", "value": "> 2000", "unit": "µg/mL"},
      {"measurement": "MIC", "setting": "[14]; ATCC12453", "value": "> 2000", "unit": "µg/mL"},
      {"measurement": "MBC/MIC", "setting": "[15]", "value": "> 1"},
      {"measurement": "MBC", "setting": "[15]; ATCC9027", "value": "> 2000", "unit": "µg/mL"},
      {"measurement": "MIC", "setting": "[15]; ATCC9027", "value": "> 2000", "unit": "µg/mL"},
      {"measurement": "MBC/MIC", "setting": "[16]", "value": "> 1"},
      {"measurement": "MBC", "setting": "[16]; ATCC25922", "value": "> 2000", "unit": "µg/mL"},
      {"measurement": "MIC", "setting": "[16]; ATCC25922", "value": "> 2000", "unit": "µg/mL"},
      {"measurement": "MBC/MIC", "setting": "[17]", "value": "> 4"},
      {"measurement": "MBC", "setting": "[17]; ATCC25923", "value": "> 2000", "unit": "µg/mL"},
      {"measurement": "MIC", "setting": "[17]; ATCC25923", "value": 500, "unit": "µg/mL"}
    ]}
  ]
}
